Earlier results, collected in patent publication US20210128641A1, “COMPOSITIONS AND METHODS FOR TREATING SKIN AND MUCOUS MEMBRANE DISEASES” (The Regents of the University of California, priority 2014, published 2021).

Legend:
keratinocytes = settings: in vitro
Propionibacterium acnes = settings: in vitro

Row | Substance | death of keratinocytes caused by Staphylococcus aureus (keratinocytes) | growth of Propionibacterium acnes on agar plates (Propionibacterium acnes)
1 | Lactobacillus reuteri | reduced death | 
2 | Lactobacillus plantarum |  | inhibit growth
3 | Lactobacillus acidophilus |  | inhibit growth
